This note sets out measurements from patent EP4471048A1, “PEPTIDE INHIBITORS OF INTERLEUKIN-23 RECEPTOR” (Zealand Pharma A/S, priority 2023, dated 2024).

Where a SMILES comes first, the peptide text is derived from it. Bridges are numbered along the chain shown (N, C = ends). [ ]: non-standard residue; d: D form. The star is where a group is joined. NH(2-(3-pyridyl)ethyl) = c1cncc(CCN*)c1; 2Nal = N[C@@H](Cc1ccc2ccccc2c1)C(=O)O; AEF = NCCOc1ccc(C[C@H](N)C(=O)O)cc1; 3Pal = N[C@@H](Cc1cccnc1)C(=O)O; β3hE = N[C@@H](CCC(=O)O)CC(=O)O; αMeL = CC(C)C[C@](C)(N)C(=O)O; dDab = NCC[C@@H](N)C(=O)O; Dab = NCC[C@H](N)C(=O)O

The target in this assay is T1, human IL-23R (Homo sapiens, UniProt Q5VWK5).
T1 sequence (Q5VWK5 22-629): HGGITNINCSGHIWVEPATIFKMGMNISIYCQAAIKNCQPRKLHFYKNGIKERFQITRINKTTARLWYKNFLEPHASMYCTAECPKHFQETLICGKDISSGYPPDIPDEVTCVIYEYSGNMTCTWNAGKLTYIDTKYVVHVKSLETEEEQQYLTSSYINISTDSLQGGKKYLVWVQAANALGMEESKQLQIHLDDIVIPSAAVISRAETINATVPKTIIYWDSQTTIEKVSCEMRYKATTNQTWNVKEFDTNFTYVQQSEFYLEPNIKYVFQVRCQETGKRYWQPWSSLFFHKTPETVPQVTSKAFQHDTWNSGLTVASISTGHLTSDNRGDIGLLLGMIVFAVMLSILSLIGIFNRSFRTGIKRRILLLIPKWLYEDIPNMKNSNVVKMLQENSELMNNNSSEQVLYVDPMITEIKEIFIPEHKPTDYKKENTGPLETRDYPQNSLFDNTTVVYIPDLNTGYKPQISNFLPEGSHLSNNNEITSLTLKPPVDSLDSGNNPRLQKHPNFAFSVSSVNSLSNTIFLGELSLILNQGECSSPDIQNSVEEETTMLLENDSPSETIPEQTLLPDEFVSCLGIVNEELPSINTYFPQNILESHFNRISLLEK
Briefly: biochemical. As to conditions: for Emax: read-out: % displacement (hIL-23R NIuc). An excerpt: The compound binding affinity for IL-23R was estimated by the ability of compounds to displace a fluorophore-labelled reference compound from the human IL-23R. The assay principle relies on Bioluminescence Resonance Energy Transfer (BRET) between a fluorophore-labelled reference compound binding to the IL-23R part of a fusion protein consisting of the IL-23R fused to a Nanoluc luciferase enzyme (Nanoluc). The Nanoluc is placed in the N-terminus in close proximity to the binding domain of the ligand. Upon close proximity between the fluorophore of the fluorophore-labelled compound and the Nanoluc of the fusion protein, bioluminescence energy generated from conversion of a Nanoluc substrate, is transferred to the fluorophore resulting in an increase in BRET. In presence of an unlabelled compound, the unlabelled compound displaces the fluorophore-labelled peptide from its binding site resulting in a decrease in BRET. The concentration for which half of the fluorophore-labelled peptide is displaced by the unlabelled compound depends on the affinity of the compound for the IL-23R, and is termed the IC50 concentration.
The plasmid also contained a gene to confer resistance for the antibiotic hygromycin. A cell line stably expressing the Nluc-IL23R fusion protein was generated by transfection of HEK293 cells with the expression plasmid and selected with hygromycin for 3 weeks in Growth medium consisting of DMEM w/ Glutamax-I containing, 10% V/V FBS, 1% V/V P/S, 1 mM Sodium Pyruvate, and 1X NEAA, and 0.3 mg/mL hygromycin. The remaining cells were propagated and considered a stable expressing Nluc-IL23R fusion protein pool clone.
Cells expressing the Nluc-IL23R fusion protein were expanded in Growth medium and membranes prepared by homogenization of a cell pellet from 18 T175 flasks (4 °C in subsequent steps). The cell pellet was lysed Tris 10 mM, 7.5, 1 mM EDTA and protease inhibitors (Complete, Roche) and homogenized using a 15 mL glass-dounce by 50 strokes. The homogenate was spun at spin @1500 rpm for 10 min, the supernatant transferred to SV-34 tubes and spun at 40000g for 20 min at 4 °C to pellet the crude membranes. The supernatant was then removed, the pellet resuspended in 5 mL buffer containing 50 mM HEPES pH 7.4, 5 mM EGTA, and 5 mM MgCl2, and homogenized. Aliquots of the resuspended and homogenized membranes containing the Nluc-IL23R fusion protein were stored at -80 °C until use.
The plate was sealed with light impermeable plate seals, and incubated on an orbital shaker 400 rpm for 2 hours at room temperature. To determine the BRET ratio, the plate seal was removed and 25 µL of the Nanoluc substrate (Promega N1572) diluted 1:500 was added to each well and incubated for 1-2 minutes on an orbital shaker at 400 rpm. […] The BRET ratio was calculated as the fluorescence from the TAMRA/nanoluc bioluminescence.
Compound potency (IC50) and maximal displacement (% displacement) were estimated by computer-aided curve fitting using a 4-parameter logistic (4PL) non-linear model. […]
In this application, the inventors provide the data as IC50 values.

For `CNC(=O)[C@H](Cc1cccnc1)NC(=O)[C@H](CCN)NC(=O)[C@@H]1CCC(=O)NCC[C@@H]2NC(=O)CC[C@H](NC(=O)[C@H](CCC(N)=O)NC(=O)[C@H](Cc3c[nH]c4ccccc34)NC(=O)CNC2=O)C(=O)N[C@@H](Cc2ccc(OCCN)cc2)C(=O)N[C@@H](Cc2ccc3ccccc3c2)C(=O)N[C@@](C)(CC(C)C)C(=O)N1` [Compound 92, [Dab](1c)(6c)^†GWQE(6c)[Y(2-aminoethoxy)][2-Nal][2-Me-Leu]E(1c)[Dab][3-(3-Pyridyl)-Ala]-[NHMe]], the IC50 (as a rule, the concentration needed to halve the response being measured) is 12 nM.

With `CNC(=O)[C@H](Cc1cccnc1)NC(=O)[C@H](CCN)NC(=O)[C@@H]1CCC(=O)NCC[C@@H]2NC(=O)CC[C@H](NC(=O)[C@H](CCC(N)=O)NC(=O)[C@H](Cc3c[nH]c4ccccc34)NC(=O)[C@H]([C@@H](C)O)NC2=O)C(=O)N[C@@H](Cc2ccc(OCCN)cc2)C(=O)N[C@@H](Cc2ccc3ccccc3c2)C(=O)N[C@@](C)(CC(C)C)C(=O)N1` [Compound 37, [Dab](1c)(6c)^†TWQE(6c)[Y(2-aminoethoxy)][2-Nal][2-Me-Leu]E(1c)[Dab][3-(3-Pyridyl)-Ala]-[NHMe]], the midpoint of inhibition, the IC50, lay at 1.4 nM and the Emax came out at 99%.

`COc1ccc(C[C@@H]2NC(=O)[C@@H]3CCC(=O)N[C@@H](CCCCNC(=O)CC[C@@H](C(=O)N[C@@H](CCCCNC(=O)Cc4ncc[nH]4)C(N)=O)NC(=O)[C@](C)(CC(C)C)NC(=O)[C@H](Cc4ccc5ccccc5c4)NC2=O)C(=O)N[C@@H]([C@@H](C)O)C(=O)N[C@@H](C(C)C)C(=O)N[C@@H](Cc2c[nH]c4ccccc24)C(=O)N[C@@H](CCC(N)=O)C(=O)N3)cc1` [Compound 58, K(1c)(6c)^†TVWQE(6c)[Y(Me)][2-Nal][2-Me-Leu]E(1c)[K(Imidazoleacetyl)]-[NH2]] had an IC50 of 550 nM.

Turning to `COc1ccc(C[C@@H]2NC(=O)[C@@H]3CCC(=O)N[C@@H](CCCCNC(=O)CC[C@@H](C(=O)N[C@@H](CCCCNC(=O)CCc4ccncc4)C(N)=O)NC(=O)[C@](C)(CC(C)C)NC(=O)[C@H](Cc4ccc5ccccc5c4)NC2=O)C(=O)N[C@@H]([C@@H](C)O)C(=O)N[C@@H](C(C)C)C(=O)N[C@@H](Cc2c[nH]c4ccccc24)C(=O)N[C@@H](CCC(N)=O)C(=O)N3)cc1` [Compound 55, K(1c)(6c)^†TVWQE(6c)[Y(Me)][2-Nal][2-Me-Leu]E(1c)[K(4-pyridylpropionyl)]-[NH2]], the IC50 was 140 nM and the Emax is 100%.

`CC(C)C[C@]1(C)NC(=O)[C@H](Cc2ccc3ccccc3c2)NC(=O)[C@H](Cc2ccc(OCCN)cc2)NC(=O)[C@@H]2CC(=O)N[C@H](CCNC(=O)CC[C@@H](C(=O)N[C@@H](CCN)C(=O)N[C@@H](Cc3cccnc3)C(N)=O)NC1=O)C(=O)N[C@@H]([C@@H](C)O)C(=O)N[C@@H](C(C)C)C(=O)N[C@@H](Cc1c[nH]c3ccccc13)C(=O)N[C@@H](CCC(N)=O)C(=O)N2` [Compound 11, [{d}Dab](1c)(6c)^†TVWQD(6c)[Y(2-aminoethoxy)][2-Nal][2-Me-Leu]E(1c)[Dab][3-(3-Pyridyl)-Ala]-[NH2]] ([dDab]TVWQD[AEF][2Nal][αMeL]E[Dab][3Pal]-NH2; lactam 1-10, N-6): it took 0.37 nM to reach half-maximal inhibition (IC50) and the Emax is 104%.

Turning to `CC[C@H](C)[C@@H]1NC(=O)[C@@H]2CCCCNC(=O)CC[C@@H](C(=O)NCC(=O)N[C@H](Cc3cccnc3)C(N)=O)NC(=O)[C@](C)(C(C)C)NC(=O)[C@H](Cc3ccc4ccccc4c3)NC(=O)[C@](C)(Cc3ccccc3)NC(=O)[C@H](CCC(=O)N2)NC(=O)[C@H](CCC(N)=O)NC(=O)[C@H](Cc2c[nH]c3ccccc23)NC(=O)[C@H](C(C)C)NC1=O` [Compound 21, K(1c)(6c)^†IVWQE(6c)[2-Me-Phe][2-Nal][2-Me-Val]E(1c)G[{d}3-(3-Pyridyl)-Ala]-[NH2]], the “% displacement (hIL-23R NIuc)” value was 101% and the IC50 is 1000 nM.

Consider `COc1ccc(C[C@@H]2NC(=O)[C@@H]3CCC(=O)N[C@@H](CCCCNC(=O)CC[C@@H](C(=O)N[C@@H](CCCCNC(=O)Cc4ccnc(F)c4)C(N)=O)NC(=O)[C@](C)(CC(C)C)NC(=O)[C@H](Cc4ccc5ccccc5c4)NC2=O)C(=O)N[C@@H]([C@@H](C)O)C(=O)N[C@@H](C(C)C)C(=O)N[C@@H](Cc2c[nH]c4ccccc24)C(=O)N[C@@H](CCC(N)=O)C(=O)N3)cc1` [Compound 57, K(1c)(6c)^†TVWQE(6c)[Y(Me)][2-Nal][2-Me-Leu]E(1c)[K(4-pyridyl-3-fluoroacetyl)]-[NH2]], for which the IC50 was found to be 790 nM and the Emax was 93%.

With `CNC(=O)[C@H](Cc1cccnc1)NC(=O)[C@H](CCN)NC(=O)[C@@H]1CCC(=O)N[C@H]2CCNC(=O)CC[C@H](NC(=O)[C@H](CCC(N)=O)NC(=O)[C@H](Cc3c[nH]c4ccccc34)NC2=O)C(=O)N[C@@H](Cc2ccc(OCCN)cc2)C(=O)N[C@@H](Cc2ccc3ccccc3c2)C(=O)N[C@@](C)(CC(C)C)C(=O)N1` [Compound 103, [iso-Dab](1c)^†(6c)WQE(6c)[Y(2-aminoethoxy)][2-Nal][2-Me-Leu]E(1c)[Dab][3-(3-Pyridyl)-Ala]-[NHMe]], the IC50 stood at 15 nM and the Emax came to 101%.

In the case of `CC[C@H](C)[C@@H]1NC(=O)[C@@H]2CCCCNC(=O)CC[C@@H](CC(=O)NCCc3cccnc3)NC(=O)[C@](C)(CC(C)C)NC(=O)[C@H](Cc3ccc4ccccc4c3)NC(=O)[C@H](Cc3ccc(OCCN)cc3)NC(=O)[C@H](CCC(=O)N2)NC(=O)[C@H](CCC(N)=O)NC(=O)[C@H](Cc2c[nH]c3ccccc23)NC(=O)[C@H](C(C)C)NC1=O` [Compound 65, K(1c)(6c)^†IVWQE(6c)[Y(2-aminoethoxy)][2-Nal][2-Me-Leu][beta-hGlu](1c)-[NH-2-(pyridin-3-yl)ethyl]] (KIVWQE[AEF][2Nal][αMeL][β3hE]-{NH(2-(3-pyridyl)ethyl)}; lactam 1-10, N-6), the IC50 stood at 140 nM and the Emax came to 99%.

Regarding `CNC(=O)[C@H](Cc1cccnc1)NC(=O)[C@H](CCN)NC(=O)[C@@H]1CCC(=O)NC[C@@H]2NC(=O)CC[C@H](NC(=O)[C@H](CCC(N)=O)NC(=O)[C@H](Cc3c[nH]c4ccccc34)NC2=O)C(=O)N[C@@H](Cc2ccc(OCCN)cc2)C(=O)N[C@@H](Cc2ccc3ccccc3c2)C(=O)N[C@@](C)(CC(C)C)C(=O)N1` [Compound 95, [Dpr](1c)(6c)^†WQE(6c)[Y(2-aminoethoxy)][2-Nal][2-Me-Leu]E(1c)[Dab][3-(3-Pyridyl)-Ala]-[NHMe]], the IC50 came out at 17 nM and the Emax came to 98%.

`CC[C@H](C)[C@@H]1NC(=O)[C@@H]2CCCCNC(=O)CC[C@@H](C(=O)NCC(=O)N[C@H](Cc3cccnc3)C(N)=O)NC(=O)[C@](C)(C(C)C)NC(=O)[C@H](Cc3ccc4ccccc4c3)NC(=O)[C@@H](Cc3ccccc3)NC(=O)[C@H](CCC(=O)N2)NC(=O)[C@H](CCC(N)=O)NC(=O)[C@H](Cc2c[nH]c3ccccc23)NC(=O)[C@H](C(C)C)NC1=O` [Compound 22, K(1c)(6c)^†IVWQE(6c)[{d}F][2-Nal][2-Me-Val]E(1c)G[{d}3-(3-Pyridyl)-Ala]-[NH2]]: 980 nM corresponded to half-maximal inhibition (IC50) and the Emax stood at 86%.
